From publication PMC4920026 (Scientific Reports, 2016)
Read-outs that look alike come from different tables or passages of the source.

Target: huPrP(23–230) (Homo sapiens, UniProt P04156)
Assay type: binding
Details: for k2 (microscopic association constant of xenon to the open state): k1 = 0, pH 4.5

[Xe] [xenon]
ΔG24 (free energy of xenon binding to the open state) (binding site A1, 293 K): -19.7 ± 0.3 kJ/M | Kd (binding site A1, Kapp = 1/k2 + k3/k2, 293 K, read-out: Kapp Xe (apparent xenon dissociation constant)): 12.5 mM | k2 (microscopic association constant of xenon to the open state) (binding site A1, 293 K): 3.2 ± 0.4 mM⁻¹ | ΔG24 (free energy of xenon binding to the open state) (binding site A2, 293 K): -14.91 ± 0.03 kJ/M | Kd (binding site A2, Kapp = 1/k2 + k3/k2, 293 K, read-out: Kapp Xe (apparent xenon dissociation constant)): 14.6 mM | k2 (microscopic association constant of xenon to the open state) (binding site A2, 293 K): 0.46 ± 0.01 mM⁻¹ | ΔG24 (free energy of xenon binding to the open state) (binding site B, 293 K): -20.5 ± 0.2 kJ/M | Kd (binding site B, Kapp = 1/k2 + k3/k2, 293 K, read-out: Kapp Xe (apparent xenon dissociation constant)): 9.1 mM | k2 (microscopic association constant of xenon to the open state) (binding site B, 293 K, k3 set to 39): 4.5 ± 0.4 mM⁻¹ | ΔG24 (free energy of xenon binding to the open state) (binding site C, 293 K): -11.5 ± 0.7 kJ/M | Kd (binding site C, Kapp = 1/k2 + k3/k2, 293 K, read-out: Kapp Xe (apparent xenon dissociation constant)): 11.4 mM | k2 (microscopic association constant of xenon to the open state) (binding site C, 293 K): 0.11 ± 0.03 mM⁻¹ | ΔG24 (free energy of xenon binding to the open state) (binding site D, 293 K): -14.24 ± 0.02 kJ/M | Kd (binding site D, Kapp = 1/k2 + k3/k2, 293 K, read-out: Kapp Xe (apparent xenon dissociation constant)): 11.8 mM | k2 (microscopic association constant of xenon to the open state) (binding site D, 293 K): 0.34 ± 0.02 mM⁻¹ | apparent xenon affinities k2/(1 + k3) (order of magnitude, over all cavities): ~0.1 mM⁻¹ | Kd (order of magnitude, over all cavities, read-out: apparent dissociation constants): ~10 mM
